Results: patent publication US20180250230A1, “POLYMERS AND MICROSPHERES” (BIOCOMPATIBLES UK LIMITED, priority 2015, published 2018)

Assay: Elution of dyes from loaded microspheres in PBS
Format: physicochemical
Conditions: from APTA43 microspheres; 1 ml in 200 mL PBS; initial loading 8.6 umols per mL of microspheres
Method: Microspheres of each polymer formulation were loaded with equal quantities of each dye. 1 ml samples of dye-loaded microspheres were added to 200 mL of PBS in an amber jar. The microsphere suspensions were rolled to provide continuous mixing. At each time point the eluent was sampled and assayed by UV/Vis spectrophotmetery as above. The volume of sampled eluent was replaced with fresh PBS to maintain the elution volume. FIG. 5 illustrates the elution profiles of each dye from APTA43 microspheres.

In the case of O=S(=O)([O-])c1cc(O)c2ccc3c(S(=O)(=O)[O-])cc(S(=O)(=O)[O-])c4ccc1c2c34.[Na+].[Na+].[Na+] [Formulation P3, 8-hydroxypyrene-1,3,6-trisulfonic acid trisodium salt], the “initial loaded amount released within 60 minutes” value was “approximately 3%”.

For O=S(=O)([O-])c1ccc2ccc3cccc4ccc1c2c34.[Na+] [Formulation P1, 1-pyrenesulfonic acid sodium salt], the “initial loaded amount released within 60 minutes” value was 80%.

With O=S(=O)([O-])c1cc(S(=O)(=O)[O-])c2ccc3c(O)cc(O)c4ccc1c2c43.[Na+].[Na+] [Formulation P2, 6,8-dihydroxypyrene-1,3-disulfonic acid disodium salt] the “initial loaded amount released within 60 minutes” value was 9%.

In the case of O.O=S(=O)([O-])c1cc(S(=O)(=O)[O-])c2ccc3c(S(=O)(=O)[O-])cc(S(=O)(=O)[O-])c4ccc1c2c43.[Na+].[Na+].[Na+].[Na+] [Formulation P4, 1,3,6,8-pyrenetetrasulfonic acid hydrate tetrasodium salt], the “initial loaded amount released within 60 minutes” value was “approximately 3%”.
